Several values for one entry are separate records, joined by “and”; a condition that tells them apart may be missing. Equal values may be shown once. Toxic doses and inconclusive results are not listed.

In the assay the test system is P388 leukemia ip, CD2F1 mice, survival T/C. Nature of the assay: NCI In Vivo Anticancer Drug Screen. Data for tumor model P388 Leukemia (intraperitoneal) in CD2F1 (CDF1) mice. To be noted: endpoint: median survival time, higher = longer survival. Summed up: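 Mice carrying the transplanted tumor received test compound or vehicle. Survival was recorded in each group, and the value is the treated-group measurement divided by that of the vehicle-treated control group.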

Setting [1] is: dose: 60.0 mg/kg/injection, schedule: Q01DX005 (ip), vehicle: saline with Tween-80.
Where [2] appears, read: dose: 120.0 mg/kg/injection, schedule: Q01DX005 (ip), vehicle: saline with Tween-80.
The mark [3] stands for this setting: dose: 50.0 mg/kg/injection, schedule: Q01DX009 (ip), vehicle: Klucel (hydroxypropylcellulose) (HPC).
Where [4] appears, read: dose: 100.0 mg/kg/injection, schedule: Q01DX009 (ip), vehicle: Klucel (hydroxypropylcellulose) (HPC).
Setting [5] is: dose: 200.0 mg/kg/injection, schedule: Q01DX009 (ip), vehicle: Klucel (hydroxypropylcellulose) (HPC).
Where [6] appears, read: dose: 25.0 mg/kg/injection, schedule: Q01DX009 (ip), vehicle: saline with Tween-80.
The mark [7] stands for this setting: dose: 50.0 mg/kg/injection, schedule: Q01DX009 (ip), vehicle: saline with Tween-80.
Where [8] appears, read: dose: 100.0 mg/kg/injection, schedule: Q01DX009 (ip), vehicle: saline with Tween-80.
[9] abbreviates: dose: 50.0 mg/kg/injection, schedule: Q01DX005 (ip), vehicle: Klucel (hydroxypropylcellulose) (HPC).
[10] abbreviates: dose: 100.0 mg/kg/injection, schedule: Q01DX005 (ip), vehicle: Klucel (hydroxypropylcellulose) (HPC).
Setting [11] is: dose: 100.0 mg/kg/injection, schedule: Q04DX003 (ip), vehicle: saline.

For the molecule `Fc1ccc2nc3ccccc3c(SCCNCCSc3c4ccccc4nc4ccc(F)cc34)c2c1`, the T/C runs as follows: under setting [1], 97 % of control; under setting [2], 89 % of control.
As for `CCCCOC(=O)N(CCCl)N=O`, the T/C (dose: 1.25 mg/kg/injection, schedule: Q01DX009 (ip), vehicle: saline with Tween-80) is 119 % of control; the T/C (dose: 2.5 mg/kg/injection, schedule: Q01DX009 (ip), vehicle: saline with Tween-80) is 108 % of control; the T/C (dose: 5.0 mg/kg/injection, schedule: Q01DX009 (ip), vehicle: saline with Tween-80) is 98 % of control.
As for `CCNC(=O)C#CC(=O)NCC`, the T/C was 92 % of control under setting [3], 92 % of control under setting [4] and 95 % of control under setting [5].
In the case of `CN1OC(C#N)CC1c1ccccc1` (centres undefined), the T/C was 100 % of control (dose: 12.5 mg/kg/injection, schedule: Q04DX002 (ip), vehicle: Klucel (hydroxypropylcellulose) (HPC)); 99 % of control and 101 % of control (dose: 25.0 mg/kg/injection, schedule: Q04DX002 (ip), vehicle: Klucel (hydroxypropylcellulose) (HPC)); 101 % of control and 112 % of control (dose: 50.0 mg/kg/injection, schedule: Q04DX002 (ip), vehicle: Klucel (hydroxypropylcellulose) (HPC)); 101 % of control (dose: 87.5 mg/kg/injection, schedule: Q04DX002 (ip), vehicle: Klucel (hydroxypropylcellulose) (HPC)); 103 % of control and 105 % of control and 121 % of control (dose: 100.0 mg/kg/injection, schedule: Q04DX002 (ip), vehicle: Klucel (hydroxypropylcellulose) (HPC)); 100 % of control (dose: 350.0 mg/kg/injection, schedule: Q04DX002 (ip), vehicle: Klucel (hydroxypropylcellulose) (HPC)).
On to `O=C1OC(=O)c2ccc3c4c(ccc1c24)C(=O)OC3=O`, for which the T/C is 104 % of control (dose: 50.0 mg/kg/injection, schedule: Q01DX005 (ip), vehicle: saline with Tween-80) and 105 % of control (dose: 100.0 mg/kg/injection, schedule: Q01DX005 (ip), vehicle: saline with Tween-80).
With `CCC1(CC)SC(C)(C)N(C=O)C1C(=O)O` (centres undefined), the T/C (dose: 100.0 mg/kg/injection, schedule: Q04DX002 (ip), vehicle: saline with Tween-80) is 99 % of control; the T/C (dose: 200.0 mg/kg/injection, schedule: Q04DX002 (ip), vehicle: saline with Tween-80) is 104 % of control; the T/C (dose: 400.0 mg/kg/injection, schedule: Q04DX002 (ip), vehicle: saline with Tween-80) is 100 % of control.
As for `COc1ccccc1CC(N)c1nn[nH]n1` (centres undefined), the T/C was 96 % of control under setting [6]; 98 % of control and 99 % of control and 101 % of control under setting [7]; 104 % of control and 89 % of control and 96 % of control under setting [8]; 91 % of control and 97 % of control (dose: 200.0 mg/kg/injection, schedule: Q01DX009 (ip), vehicle: saline with Tween-80); 96 % of control (dose: 400.0 mg/kg/injection, schedule: Q01DX009 (ip), vehicle: saline with Tween-80).
On to `C=C1CC2(C)CCC(OC(=O)C3(C)OC3C)C(C)(OC(C)=O)C2CC1=C(C)C` (centres undefined), for which the T/C reads like this: (dose: 150.0 mg/kg/injection, schedule: Q01DX001 (ip), vehicle: Klucel (hydroxypropylcellulose) (HPC)) 99 % of control; (dose: 300.0 mg/kg/injection, schedule: Q01DX001 (ip), vehicle: Klucel (hydroxypropylcellulose) (HPC)) 98 % of control.
As for `Cc1ccc(C(=O)c2cc3c([nH]c4ccccc43)c(C)c2C(=O)O)cc1`, the T/C reads like this: under setting [9], 103 % of control; under setting [10], 92 % of control; (dose: 200.0 mg/kg/injection, schedule: Q01DX005 (ip), vehicle: Klucel (hydroxypropylcellulose) (HPC)) 100 % of control.
`CCOC(=O)C(=CNc1ccc2c(C)cc3ccc(C(=O)OCC)c(=O)n3c2n1)C(=O)OCC`: the T/C by setting is: under setting [9], 88 % of control; under setting [10], 86 % of control.
Take `Clc1ncn[nH]1`: the T/C is 99 % of control (dose: 100.0 mg/kg/injection, schedule: Q01DX001 (ip), vehicle: Klucel (hydroxypropylcellulose) (HPC)); 106 % of control (dose: 200.0 mg/kg/injection, schedule: Q01DX001 (ip), vehicle: Klucel (hydroxypropylcellulose) (HPC)); 122 % of control (dose: 400.0 mg/kg/injection, schedule: Q01DX001 (ip), vehicle: Klucel (hydroxypropylcellulose) (HPC)).
Turning to `O=NN(C(=O)NC1CC1)C1CCCC1`, the T/C was 103 % of control (dose: 25.0 mg/kg/injection, schedule: Q01DX001 (ip), vehicle: distilled water + Tween-80); 109 % of control (dose: 50.0 mg/kg/injection, schedule: Q01DX001 (ip), vehicle: distilled water + Tween-80); 102 % of control (dose: 100.0 mg/kg/injection, schedule: Q01DX001 (ip), vehicle: distilled water + Tween-80); 111 % of control (dose: 200.0 mg/kg/injection, schedule: Q01DX001 (ip), vehicle: distilled water + Tween-80); 102 % of control (dose: 400.0 mg/kg/injection, schedule: Q01DX001 (ip), vehicle: distilled water + Tween-80).
`C=C(CCCC)[Se]c1ccccc1`: the T/C under setting [6] is 103 % of control and 107 % of control; the T/C under setting [7] is 107 % of control and 95 % of control; the T/C under setting [8] was 101 % of control and 117 % of control.
`O=C1C=CC2(C=C1)OCC(=O)O2`: the T/C was 100 % of control under setting [1]; 97 % of control under setting [2]; 96 % of control (dose: 240.0 mg/kg/injection, schedule: Q01DX005 (ip), vehicle: saline with Tween-80).
Take `COc1cc(OC)c2ccc(=O)oc2c1/C=C\C1(C)CCC(C)=CC1c1c(OC)cc(OC)c2ccc(=O)oc12` (centres undefined): the T/C reads like this: (dose: 2.5 mg/kg/injection, schedule: Q01DX005 (ip), vehicle: Klucel (hydroxypropylcellulose) (HPC)) 96 % of control; (dose: 5.0 mg/kg/injection, schedule: Q01DX005 (ip), vehicle: Klucel (hydroxypropylcellulose) (HPC)) 105 % of control; (dose: 10.0 mg/kg/injection, schedule: Q01DX005 (ip), vehicle: Klucel (hydroxypropylcellulose) (HPC)) 117 % of control; (dose: 20.0 mg/kg/injection, schedule: Q01DX005 (ip), vehicle: Klucel (hydroxypropylcellulose) (HPC)) 96 % of control; (dose: 40.0 mg/kg/injection, schedule: Q01DX005 (ip), vehicle: Klucel (hydroxypropylcellulose) (HPC)) 86 % of control.
For `CCOC(=O)Cc1ccc(-c2cn3c(n2)sc2ccccc23)cc1`, the T/C is 112 % of control under setting [3], 103 % of control under setting [4] and 100 % of control under setting [5].
On to `CC1S(=O)(=O)OCCOS1(=O)=O`, for which the T/C is, setting by setting: (dose: 12.5 mg/kg/injection, schedule: Q01DX005 (ip), vehicle: Klucel (hydroxypropylcellulose) (HPC)) 162 % of control; (dose: 25.0 mg/kg/injection, schedule: Q01DX005 (ip), vehicle: Klucel (hydroxypropylcellulose) (HPC)) 175 % of control and 275 % of control; under setting [9], 165 % of control and 288 % of control.
`CC(=O)n1[nH]c(=O)ccc1=O`: the T/C under setting [11] was 115 % of control; the T/C (dose: 200.0 mg/kg/injection, schedule: Q04DX003 (ip), vehicle: saline) was 107 % of control; the T/C (dose: 400.0 mg/kg/injection, schedule: Q04DX003 (ip), vehicle: saline) is 115 % of control.
As to `COC(=O)C1CC(OC(C)=O)C2OC(C)(C)OC2C1OC(C)=O` (centres undefined), the T/C under setting [3] is 100 % of control, the T/C under setting [4] is 99 % of control and the T/C under setting [5] was 100 % of control.
As to `S=c1nc[nH]c2c1ncn2C1CCCC1`, the T/C reads like this: (dose: 100.0 mg/kg/injection, schedule: Q04DX003 (ip), vehicle: saline with Tween-80) 104 % of control; (dose: 200.0 mg/kg/injection, schedule: Q04DX003 (ip), vehicle: saline with Tween-80) 104 % of control; (dose: 400.0 mg/kg/injection, schedule: Q04DX003 (ip), vehicle: saline with Tween-80) 90 % of control.
Turning to `NC(N)=N/N=C/C=N/N=C(N)N`, the T/C (dose: 6.25 mg/kg/injection, schedule: Q01DX009 (ip), vehicle: saline) was 118 % of control; the T/C (dose: 6.25 mg/kg/injection, schedule: Q04DX003 (ip), vehicle: saline) is 100 % of control; the T/C (dose: 12.5 mg/kg/injection, schedule: Q01DX009 (ip), vehicle: saline) was 100 % of control; the T/C (dose: 25.0 mg/kg/injection, schedule: Q01DX009 (ip), vehicle: saline) was 95 % of control and 100 % of control; the T/C (dose: 25.0 mg/kg/injection, schedule: Q04DX003 (ip), vehicle: saline) was 90 % of control and 100 % of control; the T/C (dose: 50.0 mg/kg/injection, schedule: Q01DX009 (ip), vehicle: saline) was 86 % of control and 100 % of control. Also, the T/C was 100 % of control (dose: 50.0 mg/kg/injection, schedule: Q04DX003 (ip), vehicle: saline); 86 % of control (dose: 100.0 mg/kg/injection, schedule: Q01DX009 (ip), vehicle: saline); 95 % of control and 100 % of control under setting [11].

The record behind these values is PubChem BioAssay AID330 (DTP/NCI, 2004).
